Laboratory results published in US5159085A, “2-anilino phenylacetic acid derivatives as inhibitors of PLA2 and lipoxygenase” (American Home Products Corporation, priority 1991, dated 1992).

What was measured:
[1] = Rat acute gastroirritation assay; design: species or system rat (male Sprague Dawley); details: in vivo, po, gastric intubation, read-out: UD50
Method: The compounds of the invention are tested in the rat acute gastroirritation assay to examine their potential for causing gastric irritation when administered at doses exceeding the effective dose.
This assay is carried out as follows:
Male Sprague Dawley rats (190-220 g) are fasted for 18 hours prior to drug administration. Rats are divided into groups of 8 and coded (i.e., observer of gastric lesions is not aware of drug treatment). Drugs are dissolved or suspended in 0.5% Tween 80 and administered by gastric intubation in a volume of 1 ml/100 g body weight, control rats receiving only Tween 80. Four hours after drug administration, rats are evaluated by recording the incidence and severity of gastroirritation using the following scoring system: 0) No irritation or lesions; 1) irritation (redness); 2) ≤5 lesions (ulcers); and 3) >5 lesions. Dunnett's test (α=0.05) is used to calculate the mean ±SE of each test group and the statistical significance.

[2] = system: Pancreatic Lipase PLA2; experiment: In vitro isolated phospholipase A2 assay, pancreatic lipase PLA2; format: biochemical
[3] = target: Bee Venom PLA2 (Apis mellifera, UniProt P00630); experiment: biochemical; details: read-out: % Inhibition at a concentration of 10 μM, Bee Venom
[4] = system: LTB4 synthesis by rat glycogen-elicited polymorphonuclear leukocytes (lipoxygenase); experiment: Inhibition of LTB4 synthesis by rat glycogen-elicited polymorphonuclear leukocytes (PMN); format: cell-based, rat (female Wistar); details: Rattus norvegicus, Leukocyte, A 23187 and exogenous AA
Text: This is especially true with respect to 5,12-diHETE, which is also denoted as LTB4 [see Ford-Hitchinson, J. Roy. Soc. Med., 74, 831 (1981)]. Compounds which inhibit the PLA2 -mediated release of arachidonic acid thereby effectively prevent the oxidation of arachidonic acid to the various leukotriene products via the lipoxygenase cascade. Accordingly, the specificity of action of PLA2 inhibitors can be determined by the activity of test compounds in this assay, which measures the ability of compounds to inhibit the synthesis of LTB4 by rat glycogen-elicited polymorphonuclear leukocytes (PMN) in the presence of exogenous substrate.
The assay is carried out as follows:
Rat polymorphonuclear leukocytes (PMNs) are obtained from female Wistar rats (150-200 g) which receive an injection of 6% glycogen (10 ml i.p.). Rats are sacrificed 18-24 hours post injection by CO2 asphyxiation and the elicited cells are harvested by peritoneal lavage using physiological saline (0.9% NaCl). The exudate is centrifuged at 400×g for 10 minutes. The supernatant fluid is discarded and the cell pellet is resuspended to a concentration of 2.0×10^7 cells/ml in HBSS containing Ca^++ and Mg^++ and 10 μM L-cysteine.
To 1 ml aliquots of cell suspension, test drugs or vehicle are added, then preincubated at 37° C. for 10 minutes. A 23187 (1 μM), [^3 H]-AA (3.0 μCi/ml) and unlabeled AA (1 μM) are then added and the samples are further incubated for 10 minutes. The reaction is terminated by centrifugation and pelleting cells. Supernatants are then analyzed by HPLC analysis on a 15 cm×4.6 mm ID supelcosil LC-18 (Supelco)(3M) column, using a two solvent system at a flow rate of 1.4 ml total flow as follows:
Gradient: (system is equillibrated with Solvent A)
Percent solvent changes are accomplished in a linear fashion.
Injections: 150 μl of each supernatant is injected directly onto column and ^3 H arachidonic acid metabolites are monitored using an on-line radioactivity detector (Ramona, IN/US, Fairfield, NJ).
Standards: 10^4 -2.0×10^4 dpm of eicosanoids of interest are injected in 90 μl EtOH cocktail.
Co-chromatography with standard [^3 H] leukotriene B4 (LTB4) in medium of stimulated PMN exposed to drug is compared to that found in medium of stimulated cells exposed to no drug, generating percent inhibition.
Results are expressed as percent inhibition at a given compound dose or as an IC50 value.

[5] = target: T1, LTD4 (isolated guinea pig trachea) (Cavia porcellus, UniProt Q2NNR5); experiment: In vitro isolated guinea pig trachea assay, LTD4 antagonist activity; design: species or system guinea pig (male Hartley); details: Table VII
T1 construct: the neck is opened and the trachea removed; from tissue; host or cells: tracheal rings of male Hartley guinea pigs
T1 sequence (Q2NNR5 1-340): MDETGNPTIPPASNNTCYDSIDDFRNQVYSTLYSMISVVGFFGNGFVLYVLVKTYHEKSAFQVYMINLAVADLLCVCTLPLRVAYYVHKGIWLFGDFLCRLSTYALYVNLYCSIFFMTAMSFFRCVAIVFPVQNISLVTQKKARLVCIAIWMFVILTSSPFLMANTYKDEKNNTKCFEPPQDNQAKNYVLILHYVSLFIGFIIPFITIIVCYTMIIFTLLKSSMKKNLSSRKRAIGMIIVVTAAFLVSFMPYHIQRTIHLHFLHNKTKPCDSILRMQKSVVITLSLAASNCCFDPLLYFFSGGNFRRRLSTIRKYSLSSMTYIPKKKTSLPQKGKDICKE
Method: The LTD4 antagonist activity of the compounds of the invention is assessed in the in vitro isolated guinea pig trachea assay. This assay is carried out as follows: Male Hartley guinea pigs (350-400 g) are euthanized by a blow to the head, the neck is opened and the trachea removed. The trachea is maintained in aerated physiological salt solution, cleared of connective tissue and fat and cut into rings approximately 2 mm in width (usually containing two cartilaginous segments per ring). Two pieces of silk suture are then passed through the lumen of the tracheal ring and are tied around the cartilage, one on each side of the trachealis muscle. […] The tracheal rings are maintained at 2 g resting tension and equilibrated for 45 minutes (with frequent washing and readjustment of resting tension). […] All responses to LTD4 in an individual tissue are measured as a percentage of the reference contraction of that tissue to carbachol. LTD4 antagonist activity is determined by comparison of the concentration response curves of LTD4 in the presence and absence of antagonist. Assessment of the relative rightward shift of the antagonist treated curve relative to the solvent (control) treated tissue is calculated as a concentration ratio (Eq. A) and used in subsequent calculations to derive an antagonist pKB value (Eqs B and C). […]

Chain of Bee Venom PLA2 (P00630 34-167 limits assumed): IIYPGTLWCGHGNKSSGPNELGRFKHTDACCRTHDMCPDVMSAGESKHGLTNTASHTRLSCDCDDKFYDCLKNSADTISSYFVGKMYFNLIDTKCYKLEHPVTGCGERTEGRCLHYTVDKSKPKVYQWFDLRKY

| SMILES | TD50 at 4 h [1] [mg/kg] | % Inhibition at a concentration of 10 μM, Pancreatic Lipase [2] [%] | inhibition at 10 µM [3] [%] | IC50 [4] [nM] | Kb [5] [nM] |
| --- | --- | --- | --- | --- | --- |
| O=C(O)Cc1ccccc1Nc1c(Cl)cccc1Cl [diclofenac, reference compound] | 20 | – | – | – | – |
| O=C(O)Cc1cc(OCc2ccc3ccccc3n2)ccc1Nc1c(Cl)cccc1Cl [Example 2, 2-[(2,6-Dichlorophenyl)amino]-5-(2-quinolylmethoxy)benzene acetic acid] | – | 90.1 | 38.7 | 10 | 550 |
